From patent US9260440B2, “Fused tetra or penta-cyclic dihydrodiazepinocarbazolones as PARP inhibitors” (BeiGene, Ltd., priority 2011, dated 2016)

Each molecule was assayed on PARP PARylation in HeLa cells (assay: PARylation assay in HeLa cells). Settings: Homo sapiens, H2O2 200 μM induced DNA damage.
Type: cell-based
Work on O=C1NN=C2CC(c3ccccc3)Cc3[nH]c4cccc1c4c32 (stereo not drawn) [Compound 5, 2-phenyl-2,3,5,10-tetrahydro-[1,2]diazepino[3,4,5,6-def]carbazol-6(1H)-one] yielded an EC50 of 0.0101 µM.
CN(C)c1ccc(C2CC3=NNC(=O)c4cc(F)cc5[nH]c(c3c45)C2)cc1 (stereo not drawn) [Compound 12, 2-(4-(dimethylamino)phenyl)-8-fluoro-2,3,5,10-tetrahydro-[1,2]diazepino[3,4,5,6-def]carbazol-6(1H)-one] gave an EC50 of 0.0266 µM.
N[C@@H](Cc1ccccc1)C(=O)N1CC2=NNC(=O)c3cccc4[nH]c(c2c34)C1 [Compound 64, (S)-2-(2-amino-3-phenylpropanoyl)-2,3,4,9-tetrahydro-2,4,9,10-tetraazacyclohepta[def]fluoren-8(1H)-one] showed an EC50 of 0.048 µM.
